What all share (test): Antifungal MIC/MLC (broth microdilution)
Common to all, as to format: cell-based
For orientation: In broth dilution the organism is exposed to a series of concentrations in liquid medium.

In one experiment the test system is T. mentagrophytes FF7. Here is the method: (§1) The antifungal activity of compound 1 was evaluated for a wide range of fungal species, covering yeasts and filamentous fungi, including dermatophytes. […] This antimicrobial effect was fungicidal, with minimal lethal concentrations (MLC) being equal to, or one or two-fold higher than the respective MIC. Twenty-three fungal strains were used in this study, including reference strains and clinical isolates of yeasts and filamentous fungi. Yeast strains included reference strains (ATCC—American Type Culture Collection and CECT—Colección Española de Cultivos Tipo) and clinical isolates: C. albicans ATCC 10231, Candida krusei ATCC 6258, C. albicans H37, C. albicans FF172, C. albicans FF176, C. albicans DSY294, C. albicans DSY296, C. glabrata DSY562, C. glabrata DSY565 and Cryptococcus neoformans CECT 1078. Filamentous fungi included Aspergillus fumigatus ATCC 240305, A. fumigatus C111, A. niger ATCC 16404, A. flavus F44, Fusarium solani FF125, F. oxysporum FF115, and dermatophytes Trichophyton rubrum FF5, T. mentagrophytes FF7, Microscoporum canis FF1 and Nannizzia gypsea FF3 (formerly Microsporum gypseum) and a species of genera Mucor, Lichetheimia and Scedosporium. Saprolegnia parasitica CBS 223.65, a reference strain of an oomycete fish pathogen, was also included. All microorganisms were kept in Sabouraud Dextrose Broth (SDB: BioMérieux, Marcy L'Etoile, France) plus glycerol (20%) at −80° C. The strains were kept in Sabouraud Dextrose Agar (SDA: BioMérieux, Marcy L'Etoile, France) slants and were sub-cultured in SDA before each test. S. parasitica was kept in Corn Meal Agar plates (CMA: BBL™ Corn Meal Agar, BD, Le Pont-de-Claix, France) and was sub-cultured in CMA before each experiment. C. albicans H37, was kindly provided by Cidilia Pina Vaz (CHSJ, Porto, Portugal) and C. albicans DSY294, C. albicans DSY296, C. glabrata DSY562, C. glabrata DSY565 were kindly provided by D. Sanglard (University of Lausanne, Switzerland). A stock solution of compound 1 (10 mg/mL), was prepared in dimethyl sulfoxide (DMSO 99%: Alfa Aesar, Kandel, Germany), kept at −20 degrees C., and freshly diluted in the appropriate culture media before each assay. In all experiments, in-test concentrations of DMSO were kept below 2%. Fluconazole (Alfa Aesar, Ward Hill, MA, USA) was tested as commercial antifungal.
(§2) Antifungal activity was evaluated by determining the MIC of compound 1 by the broth microdilution method, according to CLSI guidelines (reference documents M27-A3 for yeasts and M38-A2 for filamentous fungi). Briefly, cell or spore suspensions were prepared in RPMI-1640 broth medium (Biochrom, Berlin, Germany) buffered with 3-(N-morpholino)propane sulfonic acid (MOPS) (Sigma-Aldrich, St. Louis, MO, USA) (henceforth referred to as RPMI) from fresh cultures of the different strains of fungi. For yeasts, the inoculum was adjusted to 0.5-2.5×10^3 CFU/mL. For filamentous fungi, the inoculum was adjusted to 1-3×10^3 CFU/mL for dermatophytes, and 0.4-5×10^4 CFU/mL for all other strains. […] Sterility and growth controls were included in each assay. The 96-well flat-bottomed untreated polystyrene microtiter plates which were incubated for 48 h at 35° C., with the exception of Lichetheimia spp. which was incubated at 25° C. for 48 h, and the dermatophyte strains, which incubated for 5-7 days at 25° C. […] Voriconazole (kindly provided by Pfizer Ldt., UK) MIC for C. krusei ATCC 6258 was used as quality control and the assays were validated when the results obtained were within the recommended limits. The minimal lethal concentration (MLC) was determined by spreading 20 μL of culture collected from wells showing no visible growth on SDA plates. The MLC was determined as the lowest concentration showing complete growth inhibition after 48 h at 35 degrees C., 48 h at 25 degrees C. (Lichetheimia spp.) or 5-7 days at 25 degrees C. (dermatophytes). At least two independent assays were performed for all tested strains.

Experiment [1] deals with Aspergillus fumigatus ATCC 204305. The method, then:
as §1, §2

In another experiment the test system is Scedosporium spp. The method, then: as §1, §2
Experiment [2] concerns Cryptococcus neoformans CECT 1078. Here is the method: as §1, §2
Another experiment has as its system Fusarium solani FF125. The method, then: as §1, §2
In the next experiment the test system is C. glabrata DSY565. The method, then: as §1, §2
In a further experiment the test system is Fusarium oxysporum FF115. The method, then: as §1, §2
The next experiment concerns A. flavus F44. The method, then: as §1, §2
Another experiment has as its system Mucor spp. Here is the method: as §1, §2
The test system of the next experiment is A. niger ATCC 16404. Here is the method:
as §1, §2

The next experiment deals with C. glabrata DSY562. The method, then:
as §1, §2

A further experiment deals with Lichtheimia spp. The method, then: as §1, §2
Setting [3] is: Aspergillus fumigatus ATCC 204305, intrinsically resistant to fluconazole.
Where [4] appears, read: Fusarium solani FF125, intrinsically resistant to fluconazole.
[5] abbreviates: C. glabrata DSY565, resistant to fluconazole or azoles.
[6] abbreviates: Fusarium oxysporum FF115, intrinsically resistant to fluconazole.
The mark [7] stands for this setting: A. flavus F44, intrinsically resistant to fluconazole.
Setting [8] is: Mucor spp., intrinsically resistant to fluconazole.
Where [9] appears, read: A. niger ATCC 16404, intrinsically resistant to fluconazole.
Where [10] appears, read: Lichtheimia spp., intrinsically resistant to fluconazole.

SMILES strings stand for the structures. Values after ≈ are worked out from the molar mass of the structure shown. Where two headings read alike, the source gives them in different places.

For the compound `C[C@H](CCC(=O)NCCN)[C@H]1CC[C@H]2[C@@H]3CC[C@@H]4C[C@H](O)CC[C@]4(C)[C@H]3C[C@H](O)[C@]12C` [Compound 1, (R)—N-(2-aminoethyl)-4-((3R,5R,8R,9S,10S,12S,13R,14S,17R)-3,12-dihydroxy-10,13-dimethylhexadecahydro-1H-cyclopenta[a]phenanthren-17-yl) pentanamida], the MIC (usually the lowest concentration found to suppress growth) was 32 µg/mL (≈ 73.6 µM) in the experiment on T. mentagrophytes FF7; 128 µg/mL (≈ 294 µM) in [1] (setting [3]); 64 µg/mL (≈ 147 µM) against Scedosporium spp.; 32 µg/mL (≈ 73.6 µM) in [2]; 64 µg/mL (≈ 147 µM) against Fusarium solani FF125 (setting [4]); 64 µg/mL (≈ 147 µM) in the experiment with C. glabrata DSY565 (setting [5]). Besides, the MIC with Fusarium oxysporum FF115 (setting [6]) is 128 µg/mL (≈ 294 µM); in the experiment with A. flavus F44 (setting [7]) it was not below 128 µg/mL; against Mucor spp. (setting [8]) it was 64 µg/mL (≈ 147 µM); against A. niger ATCC 16404 (setting [9]), 64 µg/mL (≈ 147 µM); with C. glabrata DSY562, 64 µg/mL (≈ 147 µM); against Lichtheimia spp. (setting [10]), 64 µg/mL (≈ 147 µM). Also, the MLC in the experiment with T. mentagrophytes FF7 was 64 µg/mL (≈ 147 µM); in experiment [1] (setting [3]), not below 128 µg/mL; in the experiment with Scedosporium spp., 128 µg/mL (≈ 294 µM); in [2], 64 µg/mL (≈ 147 µM); with Fusarium solani FF125 (setting [4]), more than 128 µg/mL; in the experiment on C. glabrata DSY565 (setting [5]), 64 µg/mL (≈ 147 µM). The MLC in the experiment on Fusarium oxysporum FF115 (setting [6]) is not below 128 µg/mL; in the experiment with A. flavus F44 (setting [7]), more than 128 µg/mL; in the experiment with Mucor spp. (setting [8]) it was 64 µg/mL (≈ 147 µM); with A. niger ATCC 16404 (setting [9]), 128 µg/mL (≈ 294 µM); in the experiment with C. glabrata DSY562, 64 µg/mL (≈ 147 µM); with Lichtheimia spp. (setting [10]), more than 128 µg/mL.

Turning to `OC(Cn1cncn1)(Cn1cncn1)c1ccc(F)cc1F` [Fluconazole, reference compound], the MLC in the experiment on T. mentagrophytes FF7 was 32 µg/mL (≈ 104 µM); in experiment [1] (setting [3]), more than 128 µg/mL; with Scedosporium spp., 16 µg/mL (≈ 52.2 µM); in experiment [2], more than 32 µg/mL; with Fusarium solani FF125 (setting [4]), more than 128 µg/mL; in the experiment with C. glabrata DSY565 (setting [5]) it was more than 128 µg/mL. Besides, the MLC in the experiment with Fusarium oxysporum FF115 (setting [6]), in the experiment with A. flavus F44 (setting [7]), in the experiment with Mucor spp. (setting [8]), with A. niger ATCC 16404 (setting [9]), in the experiment with C. glabrata DSY562 and with Lichtheimia spp. (setting [10]) was more than 128 µg/mL in each case. The MIC in the experiment with T. mentagrophytes FF7 (Trichophyton mentagrophytes, read-out: MIC) is 8 µg/mL (≈ 26.1 µM); in experiment [1] (Aspergillus fumigatus, ATCC204305, read-out: MIC), not below 128 µg/mL; in the experiment on Scedosporium spp. (read-out: MIC), 4 µg/mL (≈ 13.1 µM); in experiment [2] (CECT1078, read-out: MIC), 8 µg/mL (≈ 26.1 µM); in the experiment with Fusarium solani FF125 (Fusarium solani, FF125, read-out: MIC), not below 128 µg/mL; against C. glabrata DSY565 (Nakaseomyces glabratus, DSY565), 128 µg/mL (≈ 418 µM). In addition, the MIC with Fusarium oxysporum FF115 (Fusarium oxysporum, FF115, read-out: MIC) was 64 µg/mL (≈ 209 µM); in the experiment with A. flavus F44 (Aspergillus flavus, F44, read-out: MIC), 128 µg/mL (≈ 418 µM); with Mucor spp. (Mucor, read-out: MIC) it was more than 128 µg/mL; in the experiment with A. niger ATCC 16404 (Aspergillus niger, ATCC16404, read-out: MIC) it was not below 128 µg/mL; in the experiment on C. glabrata DSY562 (Nakaseomyces glabratus, read-out: MIC), 4 µg/mL (≈ 13.1 µM); with Lichtheimia spp. (Lichtheimia, read-out: MIC), 64 µg/mL (≈ 209 µM).

The values are drawn from patent US20250002450A1, “CATIONIC STEROID COMPOUNDS, METHOD OF OBTAINING THEREOF, FORMULATIONS COMPRISING THEREOF AND THEIR USES” (UNIVERSIDADE DO PORTO, priority 2021, published 2025).
